Laboratory results taken from patent US5324502A, “Radiopharmaceuticals for imaging the heart” (priority 1992, dated 1994).
Read-outs that look alike come from different tables or passages of the source.

Columns and labels:
[1] = rat
Protocol: The gallium-67 complexes are prepared by ligand exchange from gallium-67 chloride, employing the tris(acetylacetonato)gallium(III) complex as an intermediate. The Ga-67 acetylacetonate in ethanol is reacted with the chelating ligand or ligand precursor at elevated temperature to form rapidly the desired gallium radiopharmaceutical. […] The biodistribution of several radiopharmaceuticals was determined in rats following intravenous injection using techniques previously described (M. A. Green, Nuclear Medicine and Biology 14:59-61, 1987; E. John and M. A. Green, J. Medicinal Chemistry, 33:1764-1770, 1990).
Under ether anesthesia, 1 to 3 μCi (0.1-0.2 mL) of no-carrier-added Ga-67 compound was administered by bolus injection into the femoral vein of male Sprague-Dawley rats. The ether anesthetized rats were sacrificed by decapitation at given time intervals post-injection, organs of interest were removed, weighed, and the gallium-67 activity counted. The biodistribution was calculated as a percentage of the injected dose per gram of tissue and percentage of injected dose per organ for each sample.

[2] = Octanol/water partition coefficient of radiolabeled gallium complexes; format: physicochemical; conditions: octanol/tris buffer, pH 7
Protocol: Octanol/water partition coefficients were measured by vortex mixing 1 mL of 1-octanol and 1 mL of isotonic Tris buffer (pH 7.0) with a 1-5 μL sample of the radiolabeled gallium complex. Following centrifugation at >1200 g for 5 minutes, the octanol and aqueous phases were sampled and counted in an automatic well counter.

Structure (SMILES): COc1cc([O-])c(C=NCCCNCCNCCCN=Cc2c([O-])cc(OC)cc2OC)c(OC)c1.[67Ga+3] [(4,6-MeO2 Sal)2 BAPEN]
- % Injected Dose per Gram Tissue, Blood ([1]; i.v., 1 min): 0.66 ± 0.14 % Injected Dose per Gram Tissu
- % Injected Dose per Gram Tissue, Brain ([1]; i.v., 1 min): 0.03 ± 0.01 % Injected Dose per Gram Tissu
- % Injected Dose per Gram Tissue, Heart ([1]; i.v., 1 min): 1.52 ± 0.24 % Injected Dose per Gram Tissu
- % Injected Dose per Gram Tissue, Kidney (one) ([1]; i.v., 1 min): 6.40 ± 0.92 % Injected Dose per Gram Tissu
- % Injected Dose per Gram Tissue, Liver ([1]; i.v., 1 min): 4.72 ± 0.82 % Injected Dose per Gram Tissu
- % Injected Dose per Gram Tissue, Lungs ([1]; i.v., 1 min): 0.81 ± 0.16 % Injected Dose per Gram Tissu
- % Injected Dose per Gram Tissue, Spleen ([1]; i.v., 1 min): 0.61 ± 0.09 % Injected Dose per Gram Tissu
- % injected dose in heart, 1 min ([1]; i.v., 1 min, preliminary studies): 1.04 ± 0.12 % injected dose
- % Injected Dose Per Gram of Tissue, Blood ([1]; i.v., 5 min): 0.11 ± 0.01 % Injected Dose Per Gram of Tissue
- % Injected Dose Per Gram of Tissue, Brain ([1]; i.v., 5 min): 0.01 ± 0.00 % Injected Dose Per Gram of Tissue
- % Injected Dose Per Gram of Tissue, Heart ([1]; i.v., 5 min): 1.45 ± 0.20 % Injected Dose Per Gram of Tissue
- % Injected Dose Per Gram of Tissue, Kidney (1) ([1]; i.v., 5 min): 6.10 ± 0.53 % Injected Dose Per Gram of Tissue
- % Injected Dose Per Gram of Tissue, Liver ([1]; i.v., 5 min): 4.32 ± 0.53 % Injected Dose Per Gram of Tissue
- % Injected Dose Per Gram of Tissue, Lungs ([1]; i.v., 5 min): 0.55 ± 0.05 % Injected Dose Per Gram of Tissue
- % Injected Dose Per Gram of Tissue, Spleen ([1]; i.v., 5 min): 0.52 ± 0.15 % Injected Dose Per Gram of Tissue
- % Injected Dose per Gram Tissue, Blood ([1]; i.v., 15 min): 0.07 ± 0.01 % Injected Dose per Gram Tissu
- % Injected Dose per Gram Tissue, Brain ([1]; i.v., 15 min): 0.01 ± 0.00 % Injected Dose per Gram Tissu
- % Injected Dose per Gram Tissue, Heart ([1]; i.v., 15 min): 1.22 ± 0.12 % Injected Dose per Gram Tissu
- % Injected Dose per Gram Tissue, Kidney (one) ([1]; i.v., 15 min): 4.22 ± 0.30 % Injected Dose per Gram Tissu
- % Injected Dose per Gram Tissue, Liver ([1]; i.v., 15 min): 2.19 ± 0.21 % Injected Dose per Gram Tissu
- % Injected Dose per Gram Tissue, Lungs ([1]; i.v., 15 min): 0.42 ± 0.06 % Injected Dose per Gram Tissu
- % Injected Dose per Gram Tissue, Spleen ([1]; i.v., 15 min): 0.43 ± 0.06 % Injected Dose per Gram Tissu
- % Injected Dose per Gram Tissue, Blood ([1]; i.v., 120 min): 0.03 ± 0.00 % Injected Dose per Gram Tissu
- % Injected Dose per Gram Tissue, Brain ([1]; i.v., 120 min): 0.01 ± 0.00 % Injected Dose per Gram Tissu
- % Injected Dose per Gram Tissue, Heart ([1]; i.v., 120 min): 1.37 ± 0.12 % Injected Dose per Gram Tissu
- % Injected Dose per Gram Tissue, Kidney (one) ([1]; i.v., 120 min): 2.77 ± 0.24 % Injected Dose per Gram Tissu
- % Injected Dose per Gram Tissue, Liver ([1]; i.v., 120 min): 0.33 ± 0.01 % Injected Dose per Gram Tissu
- % Injected Dose per Gram Tissue, Lungs ([1]; i.v., 120 min): 0.45 ± 0.11 % Injected Dose per Gram Tissu
- % Injected Dose per Gram Tissue, Spleen ([1]; i.v., 120 min): 0.37 ± 0.06 % Injected Dose per Gram Tissu
- % injected dose in heart, 2 h ([1]; i.v., 2 h, preliminary studies): 0.86 ± 0.11 % injected dose
- Heart/Blood ([1]; ratio, i.v., 1 min): 2.34 ± 0.36
- Heart/Liver ([1]; ratio, i.v., 1 min): 0.32 ± 0.03
- Heart/Lungs ([1]; ratio, i.v., 1 min): 1.88 ± 0.18
- Heart/Blood ([1]; ratio, i.v., 5 min): 13.28 ± 2.19
- Heart/Liver ([1]; ratio, i.v., 5 min): 0.34 ± 0.04
- Heart/Lung ([1]; ratio, i.v., 5 min): 2.64 ± 0.34
- Heart/Blood ([1]; ratio, i.v., 15 min): 18.10 ± 0.91
- Heart/Liver ([1]; ratio, i.v., 15 min): 0.56 ± 0.10
- Heart/Lungs ([1]; ratio, i.v., 15 min): 2.98 ± 0.53
- Heart/Blood ([1]; ratio, i.v., 120 min): 45.58 ± 3.96
- Heart/Liver ([1]; ratio, i.v., 120 min): 4.12 ± 0.44
- Heart/Lungs ([1]; ratio, i.v., 120 min): 3.27 ± 1.32
- log P [2]: 1.68

Structure (SMILES): [67Ga+3].[O-]c1ccccc1C=NCCCNCCNCCCN=Cc1ccccc1[O-] [Sal2 BAPEN, ^67 GaL^+ L = [bis(salicylaldimino)-N,N'-bis(3-aminopropyl)-ethylenediamine]]
- % injected dose in heart, 1 min ([1]; in vivo, iv): 0.45 ± 0.01 % injected dose
- % injected dose in heart, 2 h ([1]; in vivo, iv): 0.41 ± 0.03 % injected dose
- % Injected Dose per Gram Tissue, Blood ([1]; in vivo, iv, 1 min): 0.30 ± 0.01
- % Injected Dose per Gram Tissue, Brain ([1]; in vivo, iv, 1 min): 0.02 ± 0.01
- % Injected Dose per Gram Tissue, Heart ([1]; in vivo, iv, 1 min): 0.65 ± 0.02
- % Injected Dose per Gram Tissue, Kidney (one) ([1]; in vivo, iv, 1 min): 12.39 ± 0.55
- % Injected Dose per Gram Tissue, Liver ([1]; in vivo, iv, 1 min): 3.27 ± 0.44
- % Injected Dose per Gram Tissue, Lungs ([1]; in vivo, iv, 1 min): 0.85 ± 0.09
- % Injected Dose per Gram Tissue, Spleen ([1]; in vivo, iv, 1 min): 0.27 ± 0.03
- Heart/Blood ([1]; in vivo, iv, 1 min): 2.15 ± 0.05
- % Injected Dose per Gram Tissue, Blood ([1]; in vivo, iv, 2 h): 0.05 ± 0.01
- % Injected Dose per Gram Tissue, Brain ([1]; in vivo, iv, 2 h): 0.01 ± 0.003
- % Injected Dose per Gram Tissue, Heart ([1]; in vivo, iv, 2 h): 0.58 ± 0.05
- % Injected Dose per Gram Tissue, Kidney (one) ([1]; in vivo, iv, 2 h): 1.85 ± 0.30
- % Injected Dose per Gram Tissue, Liver ([1]; in vivo, iv, 2 h): 0.64 ± 0.10
- % Injected Dose per Gram Tissue, Lungs ([1]; in vivo, iv, 2 h): 0.24 ± 0.03
- % Injected Dose per Gram Tissue, Spleen ([1]; in vivo, iv, 2 h): 0.11 ± 0.01
- Heart/Blood ([1]; in vivo, iv, 2 h): 12.44 ± 0.42
- % Injected Dose per Gram Tissue, Blood ([1]; in vivo, iv, […]): 0.07 ± 0.01
- % Injected Dose per Gram Tissue, Brain ([1]; in vivo, iv, […]): 0.01 ± 0.001
- % Injected Dose per Gram Tissue, Heart ([1]; in vivo, iv, […]): 0.60 ± 0.03
- % Injected Dose per Gram Tissue, Kidney (one) ([1]; in vivo, iv, […]): 4.47 ± 0.62
- % Injected Dose per Gram Tissue, Liver ([1]; in vivo, iv, […]): 1.20 ± 0.16
- % Injected Dose per Gram Tissue, Lungs ([1]; in vivo, iv, […]): 0.29 ± 0.02
- % Injected Dose per Gram Tissue, Spleen ([1]; in vivo, iv, […]): 0.11 ± 0.01
- Heart/Blood ([1]; in vivo, iv, […]): 8.34 ± 0.66
- log P [2]: 0.56
